Laboratory results from patent publication US20230085307A1, “PYRIDAZINONE COMPOUND AND HERBICIDE” (NISSAN CHEMICAL CORPORATION, priority 2019, published 2023).

Experiments:
late watergrass = assay: Test Example 1: herbicidal activity, application before weed generation under submerged conditions (Table 16, symbol A); format: in vivo, late watergrass (Echinochloa oryzicola)
Summary of the method: (§1)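 Alluvial soil was flooded to 4 cm depth, weed seeds were sown mixed and 2.5-leaf rice seedlings were transplanted. On sowing day, the compound's emulsion, diluted in water to a set dose, was applied to the water surface. Plants grew at 25–30 °C and were scored 0–5 after three weeks.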

Japanese bulrush = assay: Test Example 1: herbicidal activity, application before weed generation under submerged conditions (Table 16, symbol B); format: in vivo, Japanese bulrush (Schoenoplectus juncoides)
Summary of the method: as §1

oval-leafed pondweed = assay: Test Example 1: herbicidal activity, application before weed generation under submerged conditions (Table 16, symbol C); format: in vivo, oval-leafed pondweed (Monochoria vaginalis)
Summary of the method: as §1

barnyard grass [1] = assay: Test Example 3: herbicidal effect by foliage application, Wagner pot (Table 18, symbol H); format: in vivo, barnyard grass (Echinochloa crus-galli)
Summary of the method: (§2)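 Plants were sown in alluvial soil held under 0.1–0.5 cm standing water and grown 14 days in a greenhouse at 25–30 °C. An emulsifiable formulation, water-diluted to the set dose, was then sprayed onto the foliage, and effects were scored three weeks later using previously defined criteria.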

Chinese sprangletop = assay: Test Example 3: herbicidal effect by foliage application, Wagner pot (Table 18, symbol D); format: in vivo, chinese sprangletop (Leptochloa chinensis)
Summary of the method: as §2

rice flat sedge = assay: Test Example 3: herbicidal effect by foliage application, Wagner pot (Table 18, symbol E); format: in vivo, rice flat sedge (Cyperus iria)
Summary of the method: as §2

southern crabgrass [2] = assay: Test Example 5: herbicidal effect by foliage application, plastic box (Table 20, symbol F); format: in vivo, southern crabgrass (Digitaria ciliaris); conditions: foliage application, three weeks after application
Summary of the method: (§3)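 Plants were sown into sterilized diluvial soil under about 1.5 cm cover and kept in a greenhouse at 25° C. to 30° C. Fourteen days on, foliage received an even spray of the diluted emulsion. Herbicidal or crop effect was judged three weeks afterwards.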

green foxtail [3] = assay: Test Example 5: herbicidal effect by foliage application, plastic box (Table 20, symbol G); format: in vivo, green foxtail (Setaria viridis); conditions: foliage application, three weeks after application
Summary of the method: as §3

barnyard grass [4] = assay: Test Example 5: herbicidal effect by foliage application, plastic box (Table 20, symbol H); format: in vivo, barnyard grass (Echinochloa crus-galli); conditions: foliage application, three weeks after application
Summary of the method: as §3

wild oat = assay: Test Example 5: herbicidal effect by foliage application, plastic box (Table 20, symbol I); format: in vivo, wild oat (Avena fatua); conditions: foliage application, AAH 320 g/ha, three weeks after application
Summary of the method: as §3

blackgrass = assay: Test Example 5: herbicidal effect by foliage application, plastic box (Table 20, symbol J); format: in vivo, blackgrass (Alopecurus myosuroides); conditions: foliage application, AAH 320 g/ha, three weeks after application
Summary of the method: as §3

Italian ryegrass = assay: Test Example 5: herbicidal effect by foliage application, plastic box (Table 20, symbol K); format: in vivo, Italian ryegrass (Lolium multiflorum); conditions: foliage application, AAH 320 g/ha, three weeks after application
Summary of the method: as §3

windgrass = assay: Test Example 5: herbicidal effect by foliage application, plastic box (Table 20, symbol L); format: in vivo, windgrass (Apera spica-venti); conditions: foliage application, AAH 320 g/ha, three weeks after application
Summary of the method: as §3

velvetleaf [5] = assay: Test Example 5: herbicidal effect by foliage application, plastic box (Table 20, symbol M); format: in vivo, velvetleaf (Abutilon theophrasti); conditions: foliage application, three weeks after application
Summary of the method: as §3

redroot pigweed [6] = assay: Test Example 5: herbicidal effect by foliage application, plastic box (Table 20, symbol N); format: in vivo, redroot pigweed (Amaranthus retroflexus); conditions: foliage application, three weeks after application
Summary of the method: as §3

lambsquarters [7] = assay: Test Example 5: herbicidal effect by foliage application, plastic box (Table 20, symbol O); format: in vivo, lambsquarters (Chenopodium album); conditions: foliage application, three weeks after application
Summary of the method: as §3

chickweed = assay: Test Example 5: herbicidal effect by foliage application, plastic box (Table 20, symbol P); format: in vivo, common chickweed (Stellaria media); conditions: foliage application, AAH 320 g/ha, three weeks after application
Summary of the method: as §3

persian speedwell = assay: Test Example 5: herbicidal effect by foliage application, plastic box (Table 20, symbol R); format: in vivo, Persian speedwell (Veronica persica); conditions: foliage application, AAH 320 g/ha, three weeks after application
Summary of the method: as §3

southern crabgrass [8] = assay: Test Example 4: herbicidal effect by soil treatment (Table 19, symbol F); format: in vivo, southern crabgrass (Digitaria ciliaris); conditions: amount of applied herbicide 320 g/ha
Summary of the method: (§4)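 In this soil treatment, the formulated compound reached the seeds only through the soil: seeds were buried about 1.5 cm deep in sterilized diluvial soil, then the diluted emulsion was sprayed over the surface. After three weeks at 25° C. to 30° C. in a greenhouse, effects were graded on criteria from an earlier test.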

green foxtail [9] = assay: Test Example 4: herbicidal effect by soil treatment (Table 19, symbol G); format: in vivo, green foxtail (Setaria viridis); conditions: amount of applied herbicide 320 g/ha
Summary of the method: as §4

barnyard grass [10] = assay: Test Example 4: herbicidal effect by soil treatment (Table 19, symbol H); format: in vivo, barnyard grass (Echinochloa crus-galli); conditions: amount of applied herbicide 320 g/ha
Summary of the method: as §4

velvetleaf [11] = assay: Test Example 4: herbicidal effect by soil treatment (Table 19, symbol M); format: in vivo, velvetleaf (Abutilon theophrasti); conditions: amount of applied herbicide 320 g/ha
Summary of the method: as §4

redroot pigweed [12] = assay: Test Example 4: herbicidal effect by soil treatment (Table 19, symbol N); format: in vivo, redroot pigweed (Amaranthus retroflexus); conditions: amount of applied herbicide 320 g/ha
Summary of the method: as §4

lambsquarters [13] = assay: Test Example 4: herbicidal effect by soil treatment (Table 19, symbol O); format: in vivo, lambsquarters (Chenopodium album); conditions: amount of applied herbicide 320 g/ha
Summary of the method: as §4

[14] = amount of applied herbicide 320 g/ha

COc1cn(C)nc1-c1sc2ccccc2c1-c1c(O)c(C)nn(C)c1=O [1-105]
Herbicidal effect on A: late watergrass (grade 0-5) (late watergrass; 320 g/ha applied herbicide): 3 (Herbicidal rate of 40% or more and less than 70%)
Herbicidal effect on B: Japanese bulrush (grade 0-5) (Japanese bulrush; 320 g/ha applied herbicide): 3 (Herbicidal rate of 40% or more and less than 70%)
Herbicidal effect on C: oval-leafed pondweed (grade 0-5) (oval-leafed pondweed; 320 g/ha applied herbicide): 2 (Herbicidal rate of 20% or more and less than 40%)
herbicidal effect on H (barnyard grass), rating 0-5 (barnyard grass [1]; 320 g/ha): 4 (Herbicidal rate of 70% or more and less than 90%)
herbicidal effect on D (Chinese sprangletop), rating 0-5 (Chinese sprangletop; 320 g/ha): 3 (Herbicidal rate of 40% or more and less than 70%)
herbicidal effect on E (rice flat sedge), rating 0-5 (rice flat sedge; 320 g/ha): 4 (Herbicidal rate of 70% or more and less than 90%)
F: southern crabgrass, herbicidal effect (southern crabgrass [2]; AAH 320 g/ha): 3 (Herbicidal rate of 40% or more and less than 70%)
G: green foxtail, herbicidal effect (green foxtail [3]; AAH 320 g/ha): 3 (Herbicidal rate of 40% or more and less than 70%)
H: barnyard grass, herbicidal effect (barnyard grass [4]; AAH 320 g/ha): 1 (Herbicidal rate of 5% or more and less than 20%)
I: wild oat, herbicidal effect (wild oat): 3 (Herbicidal rate of 40% or more and less than 70%)
J: blackgrass, herbicidal effect (blackgrass): 0 (Herbicidal rate of 5% or less (almost no effect))
K: Italian ryegrass, herbicidal effect (Italian ryegrass): 0 (Herbicidal rate of 5% or less (almost no effect))
L: windgrass, herbicidal effect (windgrass): 4 (Herbicidal rate of 70% or more and less than 90%)
M: velvetleaf, herbicidal effect (velvetleaf [5]; AAH 320 g/ha): 3 (Herbicidal rate of 40% or more and less than 70%)
N: redroot pigweed, herbicidal effect (redroot pigweed [6]; AAH 320 g/ha): 5 (Herbicidal rate of 90% or more (almost completely withered))
O: lambsquarters, herbicidal effect (lambsquarters [7]; AAH 320 g/ha): 4 (Herbicidal rate of 70% or more and less than 90%)
P: chickweed, herbicidal effect (chickweed): 5 (Herbicidal rate of 90% or more (almost completely withered))
R: persian speedwell, herbicidal effect (persian speedwell): 4 (Herbicidal rate of 70% or more and less than 90%)

C#CCSc1ccc(-c2sc3ccc(F)cc3c2-c2c(O)c(C)nn(C)c2=O)cc1 [2-465]
Herbicidal effect, A: late watergrass (late watergrass; [14]): 4 (Herbicidal rate of 70% or more and less than 90%)
Herbicidal effect, B: Japanese bulrush (Japanese bulrush; [14]): 2 (Herbicidal rate of 20% or more and less than 40%)
Herbicidal effect, C: oval-leafed pondweed (oval-leafed pondweed; [14]): 3 (Herbicidal rate of 40% or more and less than 70%)
herbicidal effect on H: barnyard grass (barnyard grass [1]; [14]): 5 (Herbicidal rate of 90% or more (almost completely withered))
herbicidal effect on D: Chinese sprangletop (Chinese sprangletop; [14]): 3 (Herbicidal rate of 40% or more and less than 70%)
herbicidal effect on E: rice flat sedge (rice flat sedge; [14]): 5 (Herbicidal rate of 90% or more (almost completely withered))
herbicidal effect, F: southern crabgrass (southern crabgrass [8]): 0 (Herbicidal rate of 5% or less (almost no effect))
herbicidal effect, G: green foxtail (green foxtail [9]): 0 (Herbicidal rate of 5% or less (almost no effect))
herbicidal effect, H: barnyard grass (barnyard grass [10]): 0 (Herbicidal rate of 5% or less (almost no effect))
herbicidal effect, M: velvetleaf (velvetleaf [11]): 0 (Herbicidal rate of 5% or less (almost no effect))
herbicidal effect, N: redroot pigweed (redroot pigweed [12]): 5 (Herbicidal rate of 90% or more (almost completely withered))
herbicidal effect, O: lambsquarters (lambsquarters [13]): 4 (Herbicidal rate of 70% or more and less than 90%)
F: southern crabgrass, herbicidal effect grade (southern crabgrass [2]; 320 g/ha): 2 (Herbicidal rate of 20% or more and less than 40%)
G: green foxtail, herbicidal effect grade (green foxtail [3]; 320 g/ha): 5 (Herbicidal rate of 90% or more (almost completely withered))
H: barnyard grass, herbicidal effect grade (barnyard grass [4]; 320 g/ha): 5 (Herbicidal rate of 90% or more (almost completely withered))
M: velvetleaf, herbicidal effect grade (velvetleaf [5]; 320 g/ha): 4 (Herbicidal rate of 70% or more and less than 90%)
N: redroot pigweed, herbicidal effect grade (redroot pigweed [6]; 320 g/ha): 5 (Herbicidal rate of 90% or more (almost completely withered))
O: lambsquarters, herbicidal effect grade (lambsquarters [7]; 320 g/ha): 5 (Herbicidal rate of 90% or more (almost completely withered))
